In article PMC4790851, “Iminosugars Inhibit Dengue Virus Production via Inhibition of ER Alpha-Glucosidases—Not Glycolipid Processing Enzymes” (PLoS Neglected Tropical Diseases, 2016):

What was measured:
[1] = target: T1, ER α-glucosidase II (Homo sapiens, UniProt Q14697); experiment: Free oligosaccharide analysis in MDMΦs: Glc1Man4GlcNAc1; assay type: cell-based; conditions: 48 h; for accumulation of Glc1Man4GlcNAc1: 1 μM, MDMΦs, all donors; for FOS representative of ER α-glucosidase II inhibition (Glc1Man4GlcNAc1): MNTD of iminosugar (NB-DNJ 100 μM), uninfected MDMΦs
T1 construct: endogenous in cells; host or cells: primary human monocyte-derived macrophages (MDMΦ)
T1 sequence (Q14697 29-944): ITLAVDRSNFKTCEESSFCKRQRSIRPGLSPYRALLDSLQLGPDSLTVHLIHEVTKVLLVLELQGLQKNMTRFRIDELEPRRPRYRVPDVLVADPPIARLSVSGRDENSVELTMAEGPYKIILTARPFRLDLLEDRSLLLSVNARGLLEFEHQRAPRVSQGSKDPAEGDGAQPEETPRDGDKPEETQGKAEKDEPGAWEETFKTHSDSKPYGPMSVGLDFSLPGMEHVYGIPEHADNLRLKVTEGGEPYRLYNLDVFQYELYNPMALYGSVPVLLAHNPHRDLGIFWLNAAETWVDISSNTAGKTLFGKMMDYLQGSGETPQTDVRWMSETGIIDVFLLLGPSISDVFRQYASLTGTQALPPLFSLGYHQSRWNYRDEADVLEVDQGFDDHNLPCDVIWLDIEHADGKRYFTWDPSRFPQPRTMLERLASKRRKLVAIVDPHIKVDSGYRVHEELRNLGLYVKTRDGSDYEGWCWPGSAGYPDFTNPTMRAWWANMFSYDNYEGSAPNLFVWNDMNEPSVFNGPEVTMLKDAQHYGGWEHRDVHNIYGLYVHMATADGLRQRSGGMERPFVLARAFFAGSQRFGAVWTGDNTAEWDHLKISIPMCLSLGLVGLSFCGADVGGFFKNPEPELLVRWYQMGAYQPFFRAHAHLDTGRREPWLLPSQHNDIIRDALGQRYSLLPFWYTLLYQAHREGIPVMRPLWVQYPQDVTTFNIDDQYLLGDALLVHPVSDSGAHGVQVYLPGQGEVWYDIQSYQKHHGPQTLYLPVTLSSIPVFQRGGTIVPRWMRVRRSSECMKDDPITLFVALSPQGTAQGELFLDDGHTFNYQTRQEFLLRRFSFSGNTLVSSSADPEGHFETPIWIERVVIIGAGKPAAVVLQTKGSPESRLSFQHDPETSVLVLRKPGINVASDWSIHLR
T1 sequence (P14314 15-528 partner): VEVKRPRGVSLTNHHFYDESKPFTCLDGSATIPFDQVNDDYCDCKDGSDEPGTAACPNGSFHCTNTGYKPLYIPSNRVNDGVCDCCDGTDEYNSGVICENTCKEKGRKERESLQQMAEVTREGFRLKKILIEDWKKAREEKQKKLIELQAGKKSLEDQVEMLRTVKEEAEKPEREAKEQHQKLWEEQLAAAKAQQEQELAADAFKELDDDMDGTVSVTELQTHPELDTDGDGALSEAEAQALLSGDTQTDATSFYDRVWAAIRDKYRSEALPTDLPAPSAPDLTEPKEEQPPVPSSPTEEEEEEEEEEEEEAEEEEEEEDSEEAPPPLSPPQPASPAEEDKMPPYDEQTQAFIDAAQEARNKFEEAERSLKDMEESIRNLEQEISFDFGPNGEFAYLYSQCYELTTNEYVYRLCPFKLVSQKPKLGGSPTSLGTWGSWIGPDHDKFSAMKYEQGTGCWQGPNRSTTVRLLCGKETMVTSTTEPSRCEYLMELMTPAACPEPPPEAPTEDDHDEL

[2] = tested on: DENV2 strain 16681; experiment: Infectious virus (plaque assay) and total virus (qRT-PCR for DENV RNA) secreted from infected MDMΦs; assay type: cell-based, dengue virus serotype 2; conditions: serial dilution, 48 h post-infection, normalized to untreated
Procedure: MDMΦ were infected with DENV2 16681 diluted to a multiplicity of infection (MOI) of 1 in X-VIVO10 without supplements for 90 minutes (20°C, with rocking). Upon removal of virus, fresh MDMΦ growth medium without IL-4 but containing serial dilutions of drug or control was placed on the cells, and cells were incubated for 48 hours (37°C, 5% CO2). For collection of infectious virus, supernatant was harvested and centrifuged for 5 minutes (room temperature, 400 x g) to pellet any cells/debris, and supernatants were aliquoted and stored at -80°C until analysis by plaque assay. […]
Virus titres for samples from human MDMΦ and C6/36 infections were obtained by LLC-MK2 plaque assays as per previous descriptions. […] A second-overlay containing nutrients, low-melting point tissue culture-grade agarose, and neutral red stain [33] was added and allowed to solidify at 20°C before further incubation for 1 day (37°C, 5% CO2) after which plaques were counted by eye. […]
DENV RNA in cell culture supernatants was isolated according to the manufacturer’s protocol for Direct-zol RNA MiniPrep Kit (Zymo Research) and assayed by reverse transcription-real time polymerase chain reaction (qRT-PCR) on an Applied Biosystems 7500 real-time PCR system (Life Technologies). […] Samples were read in technical duplicate and compared to a standard curve generated from high-titer viral RNA isolated from C6/36-grown DENV2. […]

[3] = tested on: DENV; parameters: method as in PMID 23070155, PMID 23376501, PMID 22020302, PMID 22867971; conditions: post-exposure therapeutic administration; cited from earlier work

Row | SMILES | accumulation of Glc1Man4GlcNAc1 [1] | infectious virus and total virus secreted [2] | protection in lethal mouse models of DENV infection [3] | FOS representative of ER α-glucosidase II inhibition (Glc1Man4GlcNAc1) [1]
1 | CCCC(=O)O[C@H]1CN2CC[C@H](O)[C@@H]2[C@@H](O)[C@@H]1O [Celgosivir, 6-O-butanoyl-castanospermine] | led to accumulation of Glc1Man4GlcNAc1 | reduces infectious virus (solid lines) and total virus (dashed lines) secreted in a one-to-one ratio | protection in lethal mouse models | –
2 | CCCCN1C[C@H](O)[C@@H](O)[C@H](O)[C@H]1CO [NB-DNJ, N-butyl-DNJ] | led to accumulation of Glc1Man4GlcNAc1 | reduces infectious virus (solid lines) and total virus (dashed lines) secreted in a one-to-one ratio | protection in lethal mouse models | accumulation of peaks representative of inhibition of both α-glucosidases
3 | CCCCN1C[C@H](O)[C@@H](O)[C@@H](O)[C@H]1CO [NB-DGJ] | – | – | – | fail to produce detectable ER α-glucosidase associated FOS
